“Also recorded” adds a separate entry of the source.
T1: PTP1B-CASA-mut2 (Homo sapiens, UniProt P18031, C215A/K39E/K41R/L37F/S216A)
T1 construct: PTP1B (1–321) and TCPTP (1–317) cloned in pET21b vector were used as templates; made in house; host or cells: E. coli BL21 (DE3)-RIL
T1 sequence (P18031 1-321 L37F/K39E/K41R/C215A/S216A limits assumed): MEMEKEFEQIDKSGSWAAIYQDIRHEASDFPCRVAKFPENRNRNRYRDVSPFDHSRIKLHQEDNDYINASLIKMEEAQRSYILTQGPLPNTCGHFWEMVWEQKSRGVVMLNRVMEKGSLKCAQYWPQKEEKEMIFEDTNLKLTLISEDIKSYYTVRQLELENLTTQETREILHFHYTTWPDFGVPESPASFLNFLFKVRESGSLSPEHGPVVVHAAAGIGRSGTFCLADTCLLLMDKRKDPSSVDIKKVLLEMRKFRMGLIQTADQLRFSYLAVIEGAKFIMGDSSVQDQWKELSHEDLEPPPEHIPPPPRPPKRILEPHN

T2: PTP1B-OX : TRX1 trapping mutant complex (Homo sapiens, UniProt P18031)
T2 sequence (P18031 1-321 limits assumed): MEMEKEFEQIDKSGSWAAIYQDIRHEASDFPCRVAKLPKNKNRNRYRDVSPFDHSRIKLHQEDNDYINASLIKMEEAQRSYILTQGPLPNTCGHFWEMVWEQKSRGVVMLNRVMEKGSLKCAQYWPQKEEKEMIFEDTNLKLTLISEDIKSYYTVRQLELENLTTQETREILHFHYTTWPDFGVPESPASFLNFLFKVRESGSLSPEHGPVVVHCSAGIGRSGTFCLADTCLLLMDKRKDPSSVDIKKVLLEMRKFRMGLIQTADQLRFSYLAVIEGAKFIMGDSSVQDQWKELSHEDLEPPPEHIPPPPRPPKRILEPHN


How the values were obtained:
PKC = conditions: called into question by refs 39, 40; cited from earlier work
PTP1B-CASA-mut2 [1] = molecular target: T1, PTP1B-CASA-mut2; assay: isothermal titration calorimetry; type: binding; conditions: two independent experiments
Experimental: The studies were performed using a VP-ITC system from GE Healthcare. All titrations were performed at 25°C in de-gassed buffer (50 mM HEPES pH 7.0, 100 mM NaCl, 2 % DMSO, and 1 mM TCEP). The protein concentrations of PTP1B-CASA and PTP1B-CASA-mut2 were each 50 μM. Protein samples used in ITC were dialyzed completely against the buffer. Inhibitor (10 mM) in DMSO was diluted to make a stock solution of 0.2 mM in de-gassed buffer, which was then used as titrant in the syringe. The instrument was calibrated by using the heat of dilution of NaCl in water. […] The heat of ligand dilution was corrected by subtracting the average heat of injection after saturation. Origin software was used to fit and analyze the data.

[2] = molecular target: T2, PTP1B-OX : TRX1 trapping mutant complex; assay: in vitro substrate trapping of PTP1B by thioredoxin trapping mutant; type: biochemical; conditions: chelerythrine 5 μM
From the text: Thioredoxin (TRX), which functions to reduce oxidized cysteines in target proteins, contains an essential CXXC motif, in which the first cysteine forms a mixed disulfide intermediate with an oxidized cysteine in the target protein. The second cysteine then serves a “resolving” function—it forms a disulfide bond with the first cysteine in the CXXC motif, with the resulting transfer of electrons leading to reduction of the target protein. We utilized an assay using a “trapping mutant” form of thioredoxin in which the second cysteine is mutated to serine, which stabilizes the mixed disulfide intermediate with the target substrate.
Recombinant variants of N-terminally His-tagged human TRX1 (0.1 mg, WT, and trapping mutant, C35S) were reduced with 20 mM DTT in 1 mL PBS on ice for 30 min, then desalted on a Sephadex PD-10 column. Ten μg each of TRX1-WT and TRX1-C35S proteins was used in the trapping experiment. PTP1B (40 μg ml^−1) was incubated with H2O2 (0, 0.1 and 0.5 mM) for 10 min at room temperature and excess H2O2 was removed by desalting. Reduced and oxidized forms of PTP1B (20 μg) were incubated with WT or trapping mutant TRX1 for 20 min at room temperature in the absence and presence of chelerythrine (5 μM) in 1 mL PBS. Ni-NTA beads were added and incubated for 1 h at 4 °C. […]

reduced form of PTP1B = tested on: reduced form of PTP1B; set-up: method as in PMID 21962515; conditions: cited from earlier work
PTP1B-CASA-mut2 [3] = molecular target: T1, PTP1B-CASA-mut2; assay: analytical size-exclusion chromatography; type: binding; conditions: excess or limiting molar ratios
Experimental: Recombinant PTP1B-CASA, PTP1B-CASA-mut2, and scFv45 were purified as described. Proteins were exchanged into freshly prepared 50 mM ammonium bicarbonate pH 8 (Fig. 2a; Supplementary Fig. 1) using 0.5 mL Zeba spin desalting columns 7K MWCO (Thermo Fisher Scientific) as per manufacturers protocol. Designated protein constructs or buffer equivalents were mixed at 1.1 or 1.4 molar excess (excess reciprocated for both PTP1B and scFv45) and incubated on ice 20 min prior to injection (20 µL injection loop; 4–10 µg total protein), separation, and detection on a Dionex Ultimate 3000 HPLC connected to an XBridge Protein BEH SEC 200 Å, 3.5 µm, 7.8 mm × 300 mm column (Waters) flowing 200 mM ammonium acetate pH 7.0 isocratically at 0.86 mL min^−1 and 25 °C, monitoring absorbance at λ 280 nm (Fig. 2a; Supplementary Fig. 1). Injections were performed intermittently with BEH200Å SEC Protein Standard Mix (amount corrected for 20 µL injection loop; Waters Corp.) to monitor peak resolution and retention time consistency among runs.

TCPTP = tested on: TCPTP; set-up: method as in PMID 21962515; conditions: oxidized or reduced states; cited from earlier work

Molecule	inhibition of PKC (PKC)	binding to PTP1B-CASA-mut2 by ITC (PTP1B-CASA-mut2 [1])	complex formation between PTP1B-OX and thioredoxin substrate trapping mutant [2]	binding to the reduced form of PTP1B (reduced form of PTP1B)	association with PTP1B-CASA-mut2 (PTP1B-CASA-mut2 [3])	binding to TCPTP (TCPTP)
COc1ccc2c(c[n+](C)c3c4cc5c(cc4ccc23)OCO5)c1OC [chelerythrine]	inhibitor of PKC	No apparent binding; also recorded: did not detect saturable binding	did not prevent complex formation	–	–	–
scFv45: recombinant conformation-sensor single-chain variable fragment antibody recognizing oxidized PTP1B (antibody, V domains shown) VH: TVTLDESGGGLQAPGGALSLVCKASGFTFSSYDMGWIRQAPGKGLEYVAGITDNGRYASYGSAVDGRATISRDNGQSSVRLQLNNLRAEDTGTYYCARDDGSGWTGNSIDAWGHGTEVIVSE VL: ALTQPSSVSANPGGTVKITCSGSSSAYGYGWYQQKSPGSAPVTVIYNNNKRPSNIPSRFSGSKSGSTGTLTITGVQAEDEAVYFCGSEDSSTDAIFGAGTTLTVL	–	–	–	did not bind	unable to associate	does not bind

Reference: paper PMC5773487, “Harnessing insulin- and leptin-induced oxidation of PTP1B for therapeutic development” (Nature Communications, 2018)
